Results: patent US20250230193A1, “CYCLIC COMPOUND HAVING SELECTIVE KRAS INHIBITORY EFFECT ON HRAS AND NRAS” (CHUGAI SEIYAKU KABUSHIKI KAISHA, priority 2022, published 2025)

Columns and labels:
[1] = biological target: GDP-bound HRAS wild-type protein (Homo sapiens, UniProt P01112); test: Binding to HRAS by surface plasmon resonance (SPR), Single Cycle Kinetics; details: SPR; KD ratio class
[2] = biological target: GDP-bound NRAS wild-type protein (Homo sapiens, UniProt P01111); test: Binding to NRAS by surface plasmon resonance (SPR), Single Cycle Kinetics; details: SPR; KD ratio class
GDP-bound NRAS wild-type protein, sequence (P01111 whole entry): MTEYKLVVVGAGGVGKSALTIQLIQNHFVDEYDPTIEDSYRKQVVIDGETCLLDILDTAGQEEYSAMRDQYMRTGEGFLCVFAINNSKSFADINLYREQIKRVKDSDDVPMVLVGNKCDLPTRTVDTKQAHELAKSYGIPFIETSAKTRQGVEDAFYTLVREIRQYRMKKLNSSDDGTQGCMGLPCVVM

[3] = tested on: human lung cancer strain NCI-H441; test: cells; details: NCI-H441, 96 h, read-out: NCI-H441 IC50 (nM)

GDP-bound HRAS wild-type protein, sequence (P01112 whole entry): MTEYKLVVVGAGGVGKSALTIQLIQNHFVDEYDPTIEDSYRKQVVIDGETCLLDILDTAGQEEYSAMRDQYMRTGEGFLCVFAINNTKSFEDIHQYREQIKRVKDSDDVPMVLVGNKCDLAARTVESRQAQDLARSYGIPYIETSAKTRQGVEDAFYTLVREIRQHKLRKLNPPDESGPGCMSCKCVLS

SMILES | HRAS/KRAS (ratio of KD value for GDP-bound HRAS wild-type protein to KD value for KRAS) [1] | NRAS/KRAS (ratio of KD value for GDP-bound NRAS wild-type protein to KD value for KRAS) [2] | IC50 [3]
C#CC[C@H]1C(=O)N[C@@H]([C@@H](C)CC)C(=O)N(C)CC(=O)N(C)[C@H]2CC[C@@H](C)CN(C2=O)[C@@H](Cc2ccc(C(F)(F)F)cc2)C(=O)N(C)CC(=O)N[C@@H](CCc2ccc(C(F)(F)F)c(Cl)c2)C(=O)N2CCC[C@H]2C(=O)NC2(CCCC2)C(=O)N(C)[C@@H](C2CCCC2)C(=O)N(C)[C@H](C(=O)N(C)C)CC(=O)N1C [PP1340] | B (a compound having 3 or more and less than 10 is denoted as B) | B (a compound having 3 or more and less than 10 is denoted as B) | 10.9 nM
CC[C@H](C)[C@@H]1NC(=O)[C@H](CC2CC2)N(C)C(=O)C[C@@H](C(=O)N2CCOCC2)N(C)C(=O)[C@H](C2CCCC2)N(C)C(=O)C2(CCC2)NC(=O)[C@@H]2CCCN2C(=O)[C@H](CCc2ccc(C(F)(F)F)c(Cl)c2)NC(=O)CN(C)C(=O)[C@H](Cc2ccc(C(F)(F)F)cc2)N2C[C@H](C)CC[C@@H](C2=O)N(C)C(=O)[C@@H]2CCN2C1=O [PP1341] | B (a compound having 3 or more and less than 10 is denoted as B) | A (a compound having 10 or more and less than 20 is denoted as A) | 46.3 nM
CC[C@H](C)[C@@H]1NC(=O)[C@H](CC2CCC2)N(C)C(=O)C[C@@H](C(=O)N(C)C)N(C)C(=O)[C@H](C2CCCC2)N(C)C(=O)C2(CCCC2)NC(=O)[C@@H]2CCCN2C(=O)[C@H](CCc2ccc(C(F)(F)F)c(Cl)c2)NC(=O)CN(C)C(=O)[C@H](Cc2ccc(C(F)(F)F)cc2)N2C[C@H](C)CC[C@@H](C2=O)N(C)C(=O)CN(C)C1=O [PP1342] | B (a compound having 3 or more and less than 10 is denoted as B) | B (a compound having 3 or more and less than 10 is denoted as B) | 5 nM
CC[C@H](C)[C@@H]1NC(=O)[C@H](CC2CC2)N(C)C(=O)C[C@@H](C(=O)N2CCOCC2)N(C)C(=O)[C@H](C2CCCC2)N(C)C(=O)C2(CCCC2)NC(=O)[C@@H]2CCCN2C(=O)[C@H](CCc2ccc(C(F)(F)F)c(Cl)c2)NC(=O)CN(C)C(=O)[C@H](Cc2ccc(C(F)(F)F)cc2)N2C[C@H](C)CC[C@@H](C2=O)N(C)C(=O)CN(C)C1=O [PP1343] | B (a compound having 3 or more and less than 10 is denoted as B) | A (a compound having 10 or more and less than 20 is denoted as A) | 19.3 nM
CC[C@H](C)[C@@H]1NC(=O)[C@H](CC2CC2)N(C)C(=O)C[C@@H](C(=O)N2CCOCC2)N(C)C(=O)[C@H](C2CCCC2)N(C)C(=O)C2(CCC2)NC(=O)[C@@H]2CCCN2C(=O)[C@H](CCc2ccc(C(F)(F)F)c(Cl)c2)NC(=O)CN(C)C(=O)[C@H](Cc2ccc(C(F)(F)F)cc2)N2C[C@H](C)CC[C@@H](C2=O)N(C)C(=O)CN(C)C1=O [PP1344] | B (a compound having 3 or more and less than 10 is denoted as B) | B (a compound having 3 or more and less than 10 is denoted as B) | 16.7 nM
CC[C@H](C)[C@@H]1NC(=O)[C@H](CC2CCC2)N(C)C(=O)C[C@@H](C(=O)N2CCOCC2)N(C)C(=O)[C@H](C2CCCC2)N(C)C(=O)C2(CCC2)NC(=O)[C@@H]2CCCN2C(=O)[C@H](CCc2ccc(C(F)(F)F)c(Cl)c2)NC(=O)CN(C)C(=O)[C@H](Cc2ccc(C(F)(F)F)cc2)N2C[C@H](C)CC[C@@H](C2=O)N(C)C(=O)[C@@H]2CCN2C1=O [PP1345] | B (a compound having 3 or more and less than 10 is denoted as B) | A (a compound having 10 or more and less than 20 is denoted as A) | 34.8 nM
CC[C@H](C)[C@@H]1NC(=O)[C@H](CC2CC2)N(C)C(=O)C[C@@H](C(=O)N(C)C)N(C)C(=O)[C@H](C2CCCC2)N(C)C(=O)C2(CCCC2)NC(=O)[C@@H]2CCCN2C(=O)[C@H](CCc2ccc(C(F)(F)F)c(Cl)c2)NC(=O)CN(C)C(=O)[C@H](Cc2ccc(C(F)(F)F)cc2)N2C[C@H](C)CC[C@@H](C2=O)N(C)C(=O)CN(C)C1=O [PP1346] | B (a compound having 3 or more and less than 10 is denoted as B) | B (a compound having 3 or more and less than 10 is denoted as B) | 7.2 nM
CCO[C@@H]1C[C@H]2C(=O)NC3(CCCC3)C(=O)N(C)[C@@H](C3CCCC3)C(=O)N(C)[C@H](C(=O)N(C)C)CC(=O)N(C)[C@@H](CC)C(=O)N[C@@H]([C@@H](C)CC)C(=O)N(C)CC(=O)N(C)[C@H]3C[C@H](C)C(C)CN(C3=O)[C@@H](Cc3ccc(C(F)(F)F)cc3)C(=O)N(C)CC(=O)N[C@@H](CCc3cc(F)c(C(F)(F)F)c(F)c3)C(=O)N2C1 (stereo partly drawn) [PP1347] | B (a compound having 3 or more and less than 10 is denoted as B) | B (a compound having 3 or more and less than 10 is denoted as B) | 3.6 nM
CCO[C@@H]1C[C@H]2C(=O)NC3(CCCC3)C(=O)N(C)[C@@H](C3CCCC3)C(=O)N(C)[C@H](C(=O)N3CCOCC3)CC(=O)N(C)[C@@H](CC)C(=O)N[C@@H]([C@@H](C)CC)C(=O)N(C)CC(=O)N(C)[C@H]3C[C@H](C)C(C)CN(C3=O)[C@@H](Cc3ccc(C(F)(F)F)cc3)C(=O)N(C)CC(=O)N[C@@H](CCc3cc(F)c(C(F)(F)F)c(F)c3)C(=O)N2C1 (stereo partly drawn) [PP1348] | B (a compound having 3 or more and less than 10 is denoted as B) | B (a compound having 3 or more and less than 10 is denoted as B) | 8.7 nM
CC[C@H](C)[C@@H]1NC(=O)[C@H](CC)N(C)C(=O)C[C@@H](C(=O)N(C)C)N(C)C(=O)[C@H](C2CCCC2)N(C)C(=O)C2(CCCC2)NC(=O)[C@@H]2CCCN2C(=O)[C@H](CCc2cc(F)c(C(F)(F)F)c(F)c2)NC(=O)CN(C)C(=O)[C@H](Cc2ccc(C(F)(F)F)cc2)N2CC(C)[C@@H](C)C[C@@H](C2=O)N(C)C(=O)CN(C)C1=O (stereo partly drawn) [PP1349] | B (a compound having 3 or more and less than 10 is denoted as B) | C (A compound having a KD ratio of 0.1 or more and less than 3 is denoted as C) | 14.7 nM
CC[C@H](C)[C@@H]1NC(=O)[C@H](CC)N(C)C(=O)C[C@@H](C(=O)N2CCOCC2)N(C)C(=O)[C@H](C2CCCC2)N(C)C(=O)C2(CCCC2)NC(=O)[C@@H]2CCCN2C(=O)[C@H](CCc2cc(F)c(C(F)(F)F)c(F)c2)NC(=O)CN(C)C(=O)[C@H](Cc2ccc(C(F)(F)F)cc2)N2CC(C)[C@@H](C)C[C@@H](C2=O)N(C)C(=O)CN(C)C1=O (stereo partly drawn) [PP1350] | B (a compound having 3 or more and less than 10 is denoted as B) | B (a compound having 3 or more and less than 10 is denoted as B) | 20.1 nM
